Laboratory results: patent US7396837B2, “Antitumoral analogs of lamellarins” (Pharma Mar, S.A.U., priority 2002, dated 2008)

What was measured:
Format in all cases: cell-based
K-562 = experiment: SRB colorimetric cell growth inhibition assay, K-562; details: Homo sapiens, K562, K-562; for GI50: GI=growth inhibition, read-out: GI50 K-562; for CC50: cell killing (cytotoxic effect), read-out: LC50 K-562; for IC (TGI): total growth inhibition (cytostatic effect), read-out: TGI K-562
Method in brief: (§1)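 Human tumour cells continuously exposed to compound in 96-well culture; growth and viability quantified colorimetrically by sulforhodamine B staining. Mean ± SD from triplicate wells; GI (growth inhibition), TGI (total growth inhibition, cytostatic) and LC (cell killing, cytotoxic) parameters derived.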

A-549 = experiment: SRB colorimetric cell growth inhibition assay, A-549; details: Homo sapiens, A549, A-549; for GI50: GI=growth inhibition, read-out: GI50 A-549; for CC50: cell killing (cytotoxic effect), read-out: LC50 A-549; for IC (TGI): total growth inhibition (cytostatic effect), read-out: TGI A-549
Method in brief: as §1

SK-MEL-28 = experiment: SRB colorimetric cell growth inhibition assay, SK-MEL-28; details: Homo sapiens, SK-MEL-28, MEL-28; for GI50: GI=growth inhibition, read-out: GI50 MEL-28; for CC50: cell killing (cytotoxic effect), read-out: LC50 MEL-28; for IC (TGI): total growth inhibition (cytostatic effect), read-out: TGI MEL-28
Method in brief: as §1

HT-29 = experiment: SRB colorimetric cell growth inhibition assay, HT-29; details: Homo sapiens, HT-29, HT-29; for GI50: GI=growth inhibition, read-out: GI50 HT-29; for CC50: cell killing (cytotoxic effect), read-out: LC50 HT-29; for IC (TGI): total growth inhibition (cytostatic effect), read-out: TGI HT-29
Method in brief: as §1

LoVo = experiment: SRB colorimetric cell growth inhibition assay, LoVo; details: Homo sapiens, LoVo; for GI50: GI=growth inhibition, read-out: GI50 LOVO; for CC50: cell killing (cytotoxic effect), read-out: LC50 LOVO; for IC (TGI): total growth inhibition (cytostatic effect), read-out: TGI LOVO
Method in brief: as §1

LoVo-Dox = experiment: SRB colorimetric cell growth inhibition assay, LoVo-Dox (MDR); details: Homo sapiens, LOVO-DOX; for GI50: GI=growth inhibition, read-out: GI50 LOVO-DOX; for CC50: cell killing (cytotoxic effect), read-out: LC50 LOVO-DOX; for IC (TGI): total growth inhibition (cytostatic effect), read-out: TGI LOVO-DOX
Method in brief: as §1

DU-145 = experiment: SRB colorimetric cell growth inhibition assay, DU-145; details: Homo sapiens, DU-145, DU-145; for GI50: GI=growth inhibition, read-out: GI50 DU-145; for CC50: cell killing (cytotoxic effect), read-out: LC50 DU-145; for IC (TGI): total growth inhibition (cytostatic effect), read-out: TGI DU-145
Method in brief: as §1

LNCaP = experiment: SRB colorimetric cell growth inhibition assay, LNCaP; details: Homo sapiens, LNCaP, LN-caP; for GI50: GI=growth inhibition, read-out: GI50 LN-caP; for CC50: cell killing (cytotoxic effect), read-out: LC50 LN-caP; for IC (TGI): total growth inhibition (cytostatic effect), read-out: TGI LN-caP
Method in brief: as §1

SK-BR-3 = experiment: SRB colorimetric cell growth inhibition assay, SK-BR-3; details: Homo sapiens, SK-BR-3, SK-BR-3; for GI50: GI=growth inhibition, read-out: GI50 SK-BR-3; for CC50: cell killing (cytotoxic effect), read-out: LC50 SK-BR-3; for IC (TGI): total growth inhibition (cytostatic effect), read-out: TGI SK-BR-3
Method in brief: as §1

IGROV = experiment: SRB colorimetric cell growth inhibition assay, IGROV; details: Homo sapiens, IGROV; for GI50: GI=growth inhibition, read-out: GI50 IGROV; for CC50: cell killing (cytotoxic effect), read-out: LC50 IGROV; for IC (TGI): total growth inhibition (cytostatic effect), read-out: TGI IGROV
Method in brief: as §1

IGROV-ET = experiment: SRB colorimetric cell growth inhibition assay, IGROV-ET (ET-743 resistant); details: Homo sapiens, IGROV-ET; for GI50: GI=growth inhibition, read-out: GI50 IGROV-ET; for CC50: cell killing (cytotoxic effect), read-out: LC50 IGROV-ET; for IC (TGI): total growth inhibition (cytostatic effect), read-out: TGI IGROV-ET
Method in brief: as §1

HeLa = experiment: SRB colorimetric cell growth inhibition assay, HeLa; details: Homo sapiens, HeLa; for GI50: GI=growth inhibition, read-out: GI50 HELA; for CC50: cell killing (cytotoxic effect), read-out: LC50 HELA; for IC (TGI): total growth inhibition (cytostatic effect), read-out: TGI HELA
Method in brief: as §1

HeLa-APL = experiment: SRB colorimetric cell growth inhibition assay, HeLa-APL (aplidine resistant); details: Homo sapiens, HELA-APL; for GI50: GI=growth inhibition, read-out: GI50 HELA-APL; for CC50: cell killing (cytotoxic effect), read-out: LC50 HELA-APL; for IC (TGI): total growth inhibition (cytostatic effect), read-out: TGI HELA-APL
Method in brief: as §1

PANC-1 = experiment: SRB colorimetric cell growth inhibition assay, PANC-1; details: Homo sapiens, PANC-1, PANC-1; for GI50: GI=growth inhibition, read-out: GI50 PANC-1; for CC50: cell killing (cytotoxic effect), read-out: LC50 PANC-1; for IC (TGI): total growth inhibition (cytostatic effect), read-out: TGI PANC-1
Method in brief: as §1

COc1cc(-c2c3c4cc(OC)c(OC(=O)[C@@H]5CCCN5)cc4oc(=O)c3n3ccc4cc(OC(=O)[C@@H]5CCCN5)c(OC)cc4c23)ccc1OC(=O)[C@@H]1CCCN1 [Compound 180]
GI50 (K-562): 0.04 µM
CC50 (K-562): 11.1 µM
IC (TGI) (K-562): 1.53 µM
GI50 (A-549): 0.0201 µM
CC50 (A-549): 7.26 µM
IC (TGI) (A-549): 0.233 µM
GI50 (SK-MEL-28): 0.0134 µM
CC50 (SK-MEL-28): 11.1 µM
IC (TGI) (SK-MEL-28): 0.126 µM
GI50 (HT-29): 11.1 µM
CC50 (HT-29): 11.1 µM
IC (TGI) (HT-29): 11.1 µM
GI50 (LoVo): 0.535 µM
CC50 (LoVo): 8.51 µM
IC (TGI) (LoVo): 2.01 µM
GI50 (LoVo-Dox): 0.104 µM
CC50 (LoVo-Dox): 11.1 µM
IC (TGI) (LoVo-Dox): 0.498 µM
GI50 (DU-145): 0.0359 µM
CC50 (DU-145): 11.1 µM
IC (TGI) (DU-145): 0.0842 µM
GI50 (LNCaP): 0.053 µM
CC50 (LNCaP): 0.615 µM
IC (TGI) (LNCaP): 0.227 µM
GI50 (SK-BR-3): 0.0181 µM
CC50 (SK-BR-3): 1.19 µM
IC (TGI) (SK-BR-3): 0.0541 µM
GI50 (IGROV): 0.053 µM
CC50 (IGROV): 11.1 µM
IC (TGI) (IGROV): 0.319 µM
GI50 (IGROV-ET): 0.0691 µM
CC50 (IGROV-ET): 11.1 µM
IC (TGI) (IGROV-ET): 0.531 µM
GI50 (HeLa): 0.0806 µM
CC50 (HeLa): 11.1 µM
IC (TGI) (HeLa): 1.99 µM
GI50 (HeLa-APL): 0.13 µM
CC50 (HeLa-APL): 11.1 µM
IC (TGI) (HeLa-APL): 1.21 µM
GI50 (PANC-1): 0.13 µM
CC50 (PANC-1): 11.1 µM
IC (TGI) (PANC-1): 0.0111 µM

COc1cc(-c2c3c4cc(OC)c(OC(=O)[C@@H](N)CC(C)C)cc4oc(=O)c3n3ccc4cc(OC(=O)[C@@H](N)CC(C)C)c(OC)cc4c23)ccc1OC(=O)[C@@H](N)CC(C)C [Compound 181]
GI50 (K-562): 0.0328 µM
CC50 (K-562): 7.14 µM
IC (TGI) (K-562): 0.444 µM
GI50 (A-549): 0.0198 µM
CC50 (A-549): 8.18 µM
IC (TGI) (A-549): 0.209 µM
GI50 (SK-MEL-28): 0.0168 µM
CC50 (SK-MEL-28): 2.14 µM
IC (TGI) (SK-MEL-28): 0.0956 µM
GI50 (HT-29): 3.06 µM
CC50 (HT-29): 10.5 µM
IC (TGI) (HT-29): 10.5 µM
GI50 (LoVo): 0.331 µM
CC50 (LoVo): 10.5 µM
IC (TGI) (LoVo): 1.1 µM
GI50 (LoVo-Dox): 0.0945 µM
CC50 (LoVo-Dox): 10.5 µM
IC (TGI) (LoVo-Dox): 0.47 µM
GI50 (DU-145): 0.0249 µM
CC50 (DU-145): 10.5 µM
IC (TGI) (DU-145): 0.0594 µM
GI50 (LNCaP): 0.0593 µM
CC50 (LNCaP): 0.678 µM
IC (TGI) (LNCaP): 0.237 µM
GI50 (SK-BR-3): 0.0206 µM
CC50 (SK-BR-3): 0.862 µM
IC (TGI) (SK-BR-3): 0.0592 µM
GI50 (IGROV): 0.038 µM
CC50 (IGROV): 3.2 µM
IC (TGI) (IGROV): 0.231 µM
GI50 (IGROV-ET): 0.05 µM
CC50 (IGROV-ET): 10.5 µM
IC (TGI) (IGROV-ET): 0.341 µM
GI50 (HeLa): 0.0478 µM
CC50 (HeLa): 10.5 µM
IC (TGI) (HeLa): 0.632 µM
GI50 (HeLa-APL): 0.0667 µM
CC50 (HeLa-APL): 8.14 µM
IC (TGI) (HeLa-APL): 0.477 µM
GI50 (PANC-1): 0.0864 µM
CC50 (PANC-1): 10.5 µM
IC (TGI) (PANC-1): 2.09 µM
